{"source": "patent EP2727944A1", "about": "“Depletion of CCR2-positive monocytes for the treatment of inflammatory conditions in the gastrointestinal system” (Universitätsklinikum Regensburg, priority 2012, dated 2014)", "test_system": "CX3CR1/GFP^intLy6C^hi effector monocytes", "assay": "IL-6 ELISA of sorted colonic cells cultured with TLR/NOD2 ligands", "type": "cell-based, mice", "conditions": "cells sorted at DSS day 7, cultured 16 hr; Pam3CSK4 10 µg/ml, LPS 100 ng/ml", "excerpt": "To probe whether the pro-inflammatory signature of the effector monocytes could have been a result of TLR and NOD-2 engagement, the cells were isolated from colitic mice and exposed to the respective ligands."}
{"substance": "Pam3CSK4", "values": [{"measurement": "IL-6 secretion", "result": "substantial IL-6 secretion"}]}
